Data: patent US10294207B2, “Pyrazole derivatives as TNIK, IKKϵ and TBK1 inhibitor and pharmaceutical composition comprising same” (GREEN CROSS CORPORATION, priority 2015, dated 2019)

How the values were obtained:
[1] = molecular target: T1, IKKε (Homo sapiens, UniProt Q14164); test: IKKε inhibition, ADP-Glo Kinase Assay; format: biochemical; settings: luminometer
T1 construct: purchased Invitrogen PR8031B
T1 sequence (Q14164 1-716): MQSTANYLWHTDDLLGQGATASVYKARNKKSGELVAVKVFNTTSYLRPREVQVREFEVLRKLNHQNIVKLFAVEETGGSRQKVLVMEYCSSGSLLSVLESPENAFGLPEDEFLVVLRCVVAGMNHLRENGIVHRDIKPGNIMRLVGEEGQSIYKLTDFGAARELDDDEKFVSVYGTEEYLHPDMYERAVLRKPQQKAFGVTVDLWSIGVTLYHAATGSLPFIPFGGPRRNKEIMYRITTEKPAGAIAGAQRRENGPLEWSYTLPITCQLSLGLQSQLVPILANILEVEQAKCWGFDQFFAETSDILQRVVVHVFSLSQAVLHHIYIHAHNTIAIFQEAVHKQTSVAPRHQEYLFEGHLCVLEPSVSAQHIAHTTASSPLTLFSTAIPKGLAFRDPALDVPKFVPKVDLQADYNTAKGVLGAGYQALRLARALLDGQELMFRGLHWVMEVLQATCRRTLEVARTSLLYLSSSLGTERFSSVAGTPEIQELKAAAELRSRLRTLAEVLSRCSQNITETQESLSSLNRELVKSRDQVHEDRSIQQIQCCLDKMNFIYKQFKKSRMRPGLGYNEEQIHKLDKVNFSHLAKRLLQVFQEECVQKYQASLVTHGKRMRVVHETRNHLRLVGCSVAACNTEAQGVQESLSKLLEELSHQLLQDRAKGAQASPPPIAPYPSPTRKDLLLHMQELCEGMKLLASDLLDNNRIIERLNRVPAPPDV
Procedure: (§1) Inhibition activities on TNIK, IKKε and TBK1 were evaluated using the compounds of Examples 1 to 254.
(§2) The inhibition activities on TNIK, IKKε and TBK1 were measured by a luminometer, TNIK/IKKε/TBK1 Kinase Enzyme System (Promega, Ca# V4158; Invitrogen, PR8031B, Promega, Ca# V3991) and ADP-Glo Kinase Assay using ADP-Glo™ Kinase Analysis Kit (Promega, Ca# V9101) and a kinase reaction buffer [40 mM Tris(pH 7.5), 20 mM MgCl2, 0.1 mg/mL BSA] in accordance with the manufacturer's protocol.

[2] = molecular target: T2, TBK1 (Homo sapiens, UniProt Q9UHD2); test: TBK1 inhibition, ADP-Glo Kinase Assay; format: biochemical; settings: luminometer
T2 construct: purchased Promega V3991
T2 sequence (Q9UHD2 1-729): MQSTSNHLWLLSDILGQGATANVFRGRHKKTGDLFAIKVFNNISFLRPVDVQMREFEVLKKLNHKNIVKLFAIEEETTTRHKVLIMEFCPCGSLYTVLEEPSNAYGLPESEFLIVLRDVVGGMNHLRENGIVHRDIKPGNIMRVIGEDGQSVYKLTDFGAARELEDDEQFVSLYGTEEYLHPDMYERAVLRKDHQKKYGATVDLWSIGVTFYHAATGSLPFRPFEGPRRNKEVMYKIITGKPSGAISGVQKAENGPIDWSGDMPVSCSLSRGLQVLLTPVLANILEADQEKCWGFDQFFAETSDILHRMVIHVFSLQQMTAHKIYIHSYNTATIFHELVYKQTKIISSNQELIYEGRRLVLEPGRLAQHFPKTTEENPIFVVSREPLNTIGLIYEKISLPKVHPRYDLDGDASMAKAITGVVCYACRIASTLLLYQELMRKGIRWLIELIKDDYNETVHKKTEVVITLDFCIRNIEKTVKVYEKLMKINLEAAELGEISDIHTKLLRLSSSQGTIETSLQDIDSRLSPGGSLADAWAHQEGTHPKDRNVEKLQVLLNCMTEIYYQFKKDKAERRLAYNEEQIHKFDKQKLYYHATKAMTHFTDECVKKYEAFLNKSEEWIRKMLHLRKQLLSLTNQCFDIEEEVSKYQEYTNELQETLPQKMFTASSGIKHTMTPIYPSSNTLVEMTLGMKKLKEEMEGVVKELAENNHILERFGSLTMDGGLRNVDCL
Procedure: as §1, §2

O=C(NCc1cccs1)c1ccc2[nH]nc(NC(=O)c3ccc(N4CCNCC4)cc3)c2c1 [Example 171, 3-(4-(Piperazin-1-yl)benzamido)-N-(thiophen-2-ylmethyl)-1H-indazole-5-carboxamide]
IC50 [1]: 0.0038 µM
IC50 [2]: 0.0003 µM

CC1CN(c2ccc(C(=O)Nc3n[nH]c4ccc(C(=O)NC(C)c5ccccc5)cc34)cc2)CC(C)O1 (centres unmarked) [Example 183, 3-(4-(2,6-Dimethylmorpholino)benzamido)-N-(1-phenylethyl)-1H-indazole-5-carboxamide]
IC50 [1]: 0.018 µM
IC50 [2]: 0.0043 µM

CN1CCN(c2ccc(C(=O)Nc3n[nH]c4ccc(C(=O)NC(CO)c5cccs5)cc34)cc2)CC1 (centres unmarked) [Example 45, N-(2-Hydroxy-1-(thiophen-2-yl)ethyl)-3-(4-(4-methylpiperazin-1-yl)benzamido)-1H-indazole-5-carboxamide]
IC50 [1]: 0.014 µM
IC50 [2]: 0.0021 µM

COCCNc1ccc(C(=O)Nc2n[nH]c3ccc(C(=O)NCc4cccs4)cc23)cc1 [Example 150, 3-(4-((2-methoxyethyl)amino)benzamido)-N-(thiophen-2-ylmethyl)-1H-indazole-5-carboxamide]
IC50 [1]: 0.049 µM
IC50 [2]: 0.0072 µM

O=C(NCc1cccs1)c1ccc2[nH]nc(NC(=O)c3ccc(OCCN4CCOCC4)cc3)c2c1 [Example 201, 3-(4-(2-Morpholinoethoxy)benzamido)-N-(thiophen-2-ylmethyl)-1H-indazole-5-carboxamide]
IC50 [1]: 0.038 µM
IC50 [2]: 0.003 µM

O=C(NCC1CCCC1)c1ccc2[nH]nc(NC(=O)c3ccc(N4CCOCC4)cc3)c2c1 [Example 91, N-(Cyclopentylmethyl)-3-(4-morpholinobenzamido)-1H-indazole-5-carboxamide 2,2,2-trifluoroacetate]
IC50 [1]: 0.093 µM
IC50 [2]: 0.0053 µM

CN1CCN(c2ccc(C(=O)Nc3n[nH]c4ccc(C(=O)NCc5ccncc5)cc34)cc2)CC1 [Example 121, 3-(4-(4-Methylpiperazin-1-yl)benzamido)-N-(pyridin-4-ylmethyl)-1H-indazole-5-carboxamide]
IC50 [1]: 0.11 µM
IC50 [2]: 0.0063 µM

CC(NC(=O)c1ccc2[nH]nc(NC(=O)c3ccc(N4CCNCC4)cc3)c2c1)c1ccccc1 (centres unmarked) [Example 181, N-(1-Phenylethyl)-3-(4-(piperazin-1-yl)benzamido)-1H-indazole-5-carboxamide 2,2,2-trifluoroacetate]
IC50 [1]: 0.022 µM
IC50 [2]: 0.0039 µM

CCC(C)(NC(=O)c1ccc2[nH]nc(NC(=O)c3ccc(F)cc3)c2c1)c1cccs1 (centres unmarked) [Example 34, 3-(4-Fluorobenzamido)-N-(2-(thiophen-2-yl)butan-2-yl)-1H-indazole-5-carboxamide]
IC50 [1]: 1.74 µM
IC50 [2]: 0.58 µM

O=C(NCc1cccs1)c1ccc2[nH]nc(NC(=O)c3ccc(NCC4CCCO4)cc3)c2c1 (centres unmarked) [Example 157, 3-(4-(((Tetrahydrofuran-2-yl)methyl)amino)benzamido)-N-(thiophen-2-ylmethyl)-1H-indazole-5-carboxamide]
IC50 [1]: 0.05 µM
IC50 [2]: 0.008 µM

O=C(NCc1ccccc1)c1ccc2[nH]nc(NC(=O)c3ccc(N4CCOCC4)cc3)c2c1 [Example 177, N-Benzyl-3-(4-morpholinobenzamido)-1H-indazole-5-carboxamide]
IC50 [1]: 0.033 µM
IC50 [2]: 0.011 µM

CC(C)CCNC(=O)c1ccc2[nH]nc(NC(=O)c3ccc(N4CCN(C)CC4)cc3)c2c1 [Example 114, N-Isopentyl-3-(4-(4-methylpiperazin-1-yl)benzamido)-1H-indazole-5-carboxamide 2,2,2-trifluoroacetate]
IC50 [1]: 0.41 µM
IC50 [2]: 0.082 µM

CN1CCN(c2ccc(C(=O)Nc3n[nH]c4ccc(C(=O)NCC5CCC5)cc34)cc2)CC1 [Example 106, N-(Cyclobutylmethyl)-3-(4-(4-methylpiperazin-1-yl)benzamido)-1H-indazole-5-carboxamide]
IC50 [1]: 0.15 µM
IC50 [2]: 0.023 µM
